From patent US4789478A, “Conversion of inorganic ions to metal sulfides by microorganisms” (priority 1987, dated 1988)

Tested on: Desulfomonas and Citrobacter freundii
Experiment: Effect of sulfate addition on sulfate-reducing activity of soil samples (Table 4)
Experimental: Soil samples are treated with a culture of Desulfomonas (10^8 cells/mL) and Citrobacter freundii (10^4 cells/mL) at 30° C., with and without added sulfate. Sulfate, if added, is a 1:1 mixture by weight of ferric ammonium sulfate and magnesium sulfate. Sulfate-reducing activity is indicated by formation of black precipitate in the soil sample within 24 h after mixing the cultures with soil samples.

Sulfate
sulfate-reducing activity of the mixed culture (in words) (100 ppm of sulfate): greatly improves sulfate-reducing activity of the mixed culture
sulfate reduction (in words) (200 ppm of sulfate): permit reduction in all cases
